Measured values as given in ChEMBL document CHEMBL2384990, “New Promising Compounds with in Vitro Nanomolar Activity against Trypanosoma cruzi” (ACS Med Chem Lett, 2013).
Activity calls are given as the source filed them. The rule behind the calls is not given here.

Key:
[1] = test system: Trypanosoma cruzi; experiment: Antitrypanosomal activity against Trypanosoma cruzi Tulahuen C2C4 amastigotes infected in rat L6 cells after 96 hrs by photometric analysis; assay type: functional, organism-based; details: Tulahuen C2C4, L6, 96 h
[2] = Selectivity index, ratio of IC50 for rat L6 cells to IC50 for Trypanosoma cruzi Tulahuen C2C4 amastigotes infected in rat L6 cells; assay type: toxicity, cell-based; details: read-out: Ratio IC50
[3] = test system: L6; experiment: Cytotoxicity against rat L6 cells after 72 hrs by Alamar blue assay; assay type: cell-based; details: L6, 72 h
[4] = test system: Trypanosoma cruzi; experiment: Ratio of Benznidazole IC50 to compound IC50 for Trypanosoma cruzi Tulahuen C2C4 amastigotes infected in rat L6 cells; assay type: functional
[5] = biological target: Sterol 14-alpha demethylase (Trypanosoma cruzi (strain CL Brener)) (UniProt Q7Z1V1); experiment: Inhibition of Trypanosoma cruzi CYP51
[6] = test system: Plasmodium falciparum; experiment: Antiplasmodial activity against erythrocytic stage of Plasmodium falciparum K1 after 48 hrs by [3H]-hypoxanthine incorporation assay; assay type: functional, organism-based
[7] = test system: Leishmania donovani; experiment: […] activity against Leishmania donovani MHOM-ET-67/L82 amastigotes after 72 hrs by Alamar blue assay; assay type: functional, organism-based; details: MHOM-ET-67/L82, 72 h
[8] = test system: Trypanosoma brucei rhodesiense; experiment: Antitrypanosomal activity against Trypanosoma brucei rhodesiense STIB 900 trypomastigotes after 72 hrs by Alamar blue assay; assay type: functional, organism-based; details: STIB 900, 72 h
[9] = Metabolic stability in human liver microsomes assessed as CYP-dependent metabolism after 60 mins by LC-UV-MS analysis; assay type: ADME, Microsome; details: 1 h

Chain of Sterol 14-alpha demethylase (Trypanosoma cruzi (strain CL Brener)) (Q7Z1V1 whole entry, looked up): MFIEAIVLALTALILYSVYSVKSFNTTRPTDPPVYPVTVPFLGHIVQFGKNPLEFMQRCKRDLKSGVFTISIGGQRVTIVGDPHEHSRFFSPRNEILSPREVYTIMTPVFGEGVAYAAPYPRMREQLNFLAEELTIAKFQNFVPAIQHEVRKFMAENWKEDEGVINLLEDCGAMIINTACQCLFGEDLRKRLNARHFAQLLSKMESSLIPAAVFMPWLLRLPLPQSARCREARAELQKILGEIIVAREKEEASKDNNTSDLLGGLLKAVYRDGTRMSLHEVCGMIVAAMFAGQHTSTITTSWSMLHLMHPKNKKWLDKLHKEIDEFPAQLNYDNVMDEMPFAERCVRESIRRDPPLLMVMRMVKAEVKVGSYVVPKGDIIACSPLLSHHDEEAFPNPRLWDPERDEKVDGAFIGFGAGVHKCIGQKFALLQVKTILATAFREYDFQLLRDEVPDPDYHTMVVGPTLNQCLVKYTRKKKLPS

Row | SMILES | IC50 [1] | inhibition [5] | IC50 [6] | IC50 [8] | selectivity ratio [2] | IC50 [3] | Ratio IC50 [4] | IC50 [7] | Stability [9]
1 | O=C(Nc1cc(Cl)nc(Cl)c1)OCCN1CCOCC1 | 133 µM | inactive | 23.1 µM | 117 µM | 0.6 | 79.3 µM |  | 123 µM | 
2 | O=C(Nc1ccnc(Cl)c1)OCCN1CCOCC1 | 175 µM | inactive | 79.8 µM | 230 µM | 1.3 | 238 µM |  | 190 µM | 
3 | CC(C)c1ccc(NC(=O)OC(Cn2ccnc2)c2ccc(Cl)cc2)cc1 (racemic) | 0.005 µM |  | 1.8 µM | 18.2 µM | 2490 | 13 µM |  | 7 µM | 
4 | CCCCCCCCCCCCCCCCOP(=O)([O-])OCC[N+](C)(C)C [MILTEFOSINE] |  |  |  |  |  |  |  | 0.366 µM | 
5 | CC(C)c1ccc(NC(=O)O[C@@H](Cn2ccnc2)c2ccc(Cl)cc2)cc1 | 0.112 µM |  |  |  | 125 | 14 µM |  |  | 
6 | CC(C)c1ccc(NC(=O)O[C@H](Cn2ccnc2)c2ccc(Cl)cc2)cc1 | 0.0018 µM |  |  |  | 7470 | 13.4 µM | <=1000 |  | Unstable
7 | O=C(Cn1ccnc1[N+](=O)[O-])NCc1ccccc1 [BENZNIDAZOLE] | 1.67 µM |  |  |  |  |  |  |  | 
8 | Cc1ncc([N+](=O)[O-])n1CCOC(=O)Nc1ccncc1Br | 48.4 µM | inactive | 60.2 µM | 139 µM | 4.6 | 222 µM |  | 85.1 µM | 
9 | COc1cc([C@@H]2c3cc4c(cc3[C@H](O)[C@H]3COC(=O)[C@H]23)OCO4)cc(OC)c1OC [PODOFILOX] |  |  |  |  |  | 0.001 µM |  |  | 

Continued, in another order:

Row | IC50 [1] | inhibition [5] | IC50 [6] | IC50 [8] | SMILES | selectivity ratio [2] | IC50 [3] | Ratio IC50 [4] | IC50 [7] | Stability [9]
10 | 0.0236 µM |  |  |  | O=C(Nc1cc(Cl)nc(Cl)c1)O[C@H](Cn1ccnc1)c1ccc(Cl)cc1 | 1340 | 31.6 µM | <=1000 |  | 
11 | 0.193 µM |  |  |  | O=C(O[C@@H](Cn1ccnc1)c1ccccc1)c1ccc(-c2ccccc2)cc1 | 143 | 27.5 µM |  |  | 
12 | 0.0972 µM |  |  |  | O=C(Nc1cc(Cl)nc(Cl)c1)O[C@@H](Cn1ccnc1)c1ccc(Cl)cc1 | 158 | 15.4 µM |  |  | 
13 | 0.0038 µM |  |  |  | O=C(O[C@H](Cn1ccnc1)c1ccccc1)c1ccc(-c2ccccc2)cc1 | 4800 | 18.2 µM | <=1000 |  | Unstable
14 | 0.014 µM |  | 2.2 µM | 42.1 µM | O=C(OC(Cn1ccnc1)c1ccccc1)c1ccc(-c2ccccc2)cc1 (racemic) | 1580 | 23.6 µM |  | 5.4 µM | 
15 | 0.005 µM |  | 4.6 µM | 19.1 µM | CC(C)c1ccc(NC(=O)OC(Cn2ccnc2)c2ccc(F)cc2)cc1 (racemic) | 3360 | 16.8 µM |  | 15 µM | 
16 | 0.036 µM |  | 1.5 µM | 34 µM | O=C(Nc1cc(Cl)nc(Cl)c1)OC(Cn1ccnc1)c1ccc(Cl)cc1 (racemic) | 749 | 27.2 µM |  | 11.4 µM | 
17 | 24.4 µM |  | 36.7 µM | 294 µM | O=C(COc1ccccc1)OC(Cn1ccnc1)c1ccc(F)cc1 (racemic) | 7.5 | 182 µM |  | 17.3 µM | 
